Assay results from PubChem BioAssay (NCI).
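Where inhibition never reached the appropriate level, the endpoint shown equals the highest concentration tested. Otherwise, values were interpolated linearly from a five-concentration, 48-hour dose response in 96-well plates. Abbreviation: GI50, concentration required for 50% inhibition of growth. TGI: total growth inhibition.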

Tests used:
Test in all cases: NCI anticancer screen, dose series, 48 h
HL-60(TB) leukemia = test system: HL-60(TB) leukemia
SNB-19 CNS = test system: SNB-19 CNS
NCI/ADR-RES ovarian = test system: NCI/ADR-RES ovarian
CAKI-1 renal = test system: CAKI-1 renal
M14 melanoma = test system: M14 melanoma
MCF7 breast = test system: MCF7 breast
BT-549 breast = test system: BT-549 breast
786-0 renal = test system: 786-0 renal
MDA-N = test system: MDA-N
UACC-257 melanoma = test system: UACC-257 melanoma
HS 578T breast = test system: HS 578T breast

SMILES | GI50 (HL-60(TB) leukemia) [µM] | TGI (HL-60(TB) leukemia) [µM] | GI50 (SNB-19 CNS) [µM] | TGI (SNB-19 CNS) [µM] | GI50 (NCI/ADR-RES ovarian) [µM] | TGI (NCI/ADR-RES ovarian) [µM] | GI50 (CAKI-1 renal) [µM] | TGI (CAKI-1 renal) [µM] | GI50 (M14 melanoma) [µM] | TGI (M14 melanoma) [µM] | GI50 (MCF7 breast) [µM] | TGI (MCF7 breast) [µM] | TGI (BT-549 breast) [µM] | TGI (786-0 renal) [µM] | TGI (MDA-N) [µM] | TGI (UACC-257 melanoma) [µM] | TGI (HS 578T breast) [µM]
CCOC(=O)c1c(Cl)c2c(n1Cc1ccccc1)-c1oncc1CCC2 | 3.32 | > 100 | > 100 | > 100 | 2.83 | > 100 | 3.51 | > 100 | 3.78 | > 100 | 3.21 | > 100 | – | – | – | – | –
CCOC(=O)c1cn(-c2ccc([N+](=O)[O-])cc2)c(=S)n2c1nc1ccccc12 | – | – | – | > 100 | – | > 100 | – | > 100 | – | > 100 | – | > 100 | > 100 | > 100 | > 100 | > 100 | –
Cc1cn([C@H]2C[C@@H](N3C(=O)c4ccccc4C3=O)[C@@H](CO[Si](C)(C)C(C)(C)C)O2)c(=O)[nH]c1=O | – | – | – | > 100 | – | > 100 | – | > 100 | – | > 100 | – | > 100 | > 100 | 81.5 | > 100 | > 100 | > 100
CC(C)(C)C1CC[C@H]2c3c([nH]c4ccccc34)[C@H]3C(=O)N(c4ccc(F)cc4)C(=O)[C@H]3[C@H]2C1 (stereo partly specified) | – | – | – | 29.8 | – | – | – | 32.5 | – | 38.4 | – | – | – | 23.5 | – | 54.2 | –
C(=C\c1cc[n+](CCc2ccccc2)cc1)/c1ccccc1 | – | – | – | 50.9 | – | > 100 | – | 86.1 | – | 31.5 | – | > 100 | 57.9 | > 100 | – | 17.5 | 54.6
COC(=O)[C@@H]1Cc2ccc(OC)c(c2)OCCC(=O)N1 | – | – | – | > 100 | – | > 100 | – | > 100 | – | > 100 | – | > 100 | > 100 | > 100 | > 100 | > 100 | > 100
CCOC(=O)c1nc2ccc(C(F)(F)F)cc2nc1Oc1ccc(OC)cc1 | – | – | – | > 100 | – | > 100 | – | > 100 | – | > 100 | – | > 100 | > 100 | > 100 | > 100 | > 100 | > 100
Cc1csc(=Nc2ccccc2)n1CCC(O)(P(=O)(O)O)P(=O)(O)O | – | – | – | > 100 | – | > 100 | – | > 100 | – | > 100 | – | > 100 | > 100 | > 100 | > 100 | > 100 | > 100
CCN(C(=O)N[C@@H](CC(C)C)C(=O)NCC(=O)OC)c1ccccc1 | – | – | – | > 100 | – | > 100 | – | > 100 | – | > 100 | – | > 100 | > 100 | > 100 | > 100 | 61.9 | –
COC(=O)C1(CCCCl)CCCN1C(=O)OC(C)(C)C (stereo unspecified) | – | – | – | > 100 | – | > 100 | – | > 100 | – | – | – | > 100 | > 100 | > 100 | > 100 | > 100 | –
CCCCCCC1OC23OC1CCC2C(O)CCC3O (stereo unspecified) | – | > 100 | – | > 100 | – | > 100 | – | > 100 | – | – | – | > 100 | > 100 | > 100 | – | > 100 | > 100
CCN(CC)/[N+]([O-])=N/OS(=O)(=O)N(C)C | – | > 100 | – | > 100 | – | > 100 | – | > 100 | – | > 100 | – | > 100 | – | > 100 | > 100 | > 100 | > 100
